Several values for one entry are separate records, joined by “and”; a condition that tells them apart may be missing. Equal entries are not always repeated.
Test system: SK-MEL-5 viability, CellTiter-Glo ATP luminescence, 24 h
Test: growth inhibition of SK-MEL-5 melanoma cells – cell-based, CellTiter-Glo luminescence, dry powder, set 8, orthogonal assay for MITF inhibitor project, dose response (AID 651586)

With `O=C1C=C(Nc2ccccc2)C(=O)c2ccccc21` the IC50 was 2.56 µM and 6.21 µM.
